Measurements published in patent publication US20200283734A1, “REPROGRAMMING OF A DIFFERENTIATED CELL TO AN UNDIFFERENTIATED CELL USING EXOSOME” (AGENCY FOR SCIENCE, TECHNOLOGY AND RESEARCH, priority 2017, published 2020).

How the values were obtained:
[1] = tested on: A431 EX-iCSCs; assay: Drug resistance assay (Alamar Blue cell viability), A431; type: cell-based; conditions: A431 EX-iCSCs (FIG. 16)
Procedure: (§1) H7-exosome treated and non-treated A431 and MCF7 cancer cells were seeded at a density of 3×10^3 cells per well in a 96-well plate, in their respective medium. The anticancer drugs, cisplatin, doxorubicin and sunitinib were then added in concentration series ranging from 0.1 to 1000, 0.001 to 10, and 0.1 to 1000 μg/mL, respectively. After time periods of 24, 48 and 72 hours, the cells were subjected to an Alamar Blue assay for cell viability.
(§2) Drug resistance has been associated with stem cell-like traits in cancer cells. The MCF7 and A431 cell lines were treated with exosomes to induce EX-iCSCs, following which they were subjected to viability (Alamar Blue) assays (FIG. 16, FIG. 17).

[2] = tested on: MCF7 EX-iCSCs; assay: Drug resistance assay (Alamar Blue cell viability), MCF7; type: cell-based; conditions: for drug resistance characteristics of EX-iCSCs towards cancer drugs: MCF7 EX-iCSCs (FIG. 17)
Procedure: as §1, §2

| Structure (SMILES) | drug resistance characteristics of EX-iCSCs towards cancer drugs [1] | viability of exosome-treated cells under drug compared to non-treated cells ([2]; MCF7, H7-exosome treated, all time points (24, 48 and 72 hours)) | drug resistance characteristics of EX-iCSCs towards cancer drugs [2] |
| --- | --- | --- | --- |
| COc1cccc2c1C(=O)c1c(O)c3c(c(O)c1C2=O)C[C@@](O)(C(=O)CO)C[C@@H]3O[C@H]1C[C@H](N)[C@H](O)[C@H](C)O1 [doxorubicin] | showed drug resistance characteristics | significantly higher viability | showed drug resistance characteristics |
| N.N.[Cl][Pt][Cl] [cisplatin] | showed drug resistance characteristics |  | showed drug resistance characteristics |
